According to patent US9120789B2, “1-(5-tert-butyl-2-phenyl-2H-pyrazol-3-yl)-3-[2-fluoro-4-(1-methyl-2-oxo-2,3-dihydro-1H-imidazo[4,5-b]pyridin-7-yloxy)-phenyl]-urea and related compounds and their use in therapy” (CANCER RESEARCH TECHNOLOGY LIMITED, priority 2010, dated 2015):

Tests used:
[1] = system: SW620 colorectal carcinoma cell line (mutant RAS); assay: Assay C - SRB cell proliferation assay, SW620; type: cell-based; conditions: Homo sapiens, SW-620, 120 h; SW620, 5 days growth
Description: (§1) Values for the blank (no cells) are subtracted from all values. The DMSO controls are set as 100% activity and assay points (the response) are calculated as a percentage of the DMSO control. Data are plotted using Graphpad Prism software and a non-linear regression line is calculated using a variable slope sigmoidal dose-response equation: Y=Bottom+[Top−Bottom]/[1+10^((Log EC50−X)*HillSlope)] where X is the logarithm of concentration and Y is the response). The IC50 generated by this procedure is the concentration of the drug that produces a percentage control fluorescence value midway between the saturation, and zero-effect plateaus. Three independent assays are usually performed and the mean IC50 is reported. Biological Methods—Assay C—SRB Cell Proliferation Assay (SRB GI50)
Cell lines (e.g., WM266.4 and A375M melanoma cell lines; SW620 colorectal carcinoma cell line) are routinely cultured in DMEM or RPMI1640 supplemented with 10% foetal bovine serum, at 37° C., in 10% CO2 water saturated atmosphere. Cultures are maintained in exponential growth phase by sub-culturing before having become confluent (3-5 day intervals). Single cell suspensions are prepared by harvesting an 80 cm^2 tissue culture flask with 5 mL commercial trypsin EDTA. After 5 minutes, the detached cells are mixed with 5 mL fully complemented culture medium and centrifugally pelleted (1000 rpm for 7 minutes). After aspirating the supernatant, the cell pellet is re-suspended in 10 mL fresh medium and the cells fully disaggregated by drawing the whole volume up/down 5 times through a 19-gauge needle. The concentration of the cells is determined using a haemocytometer ( 1/10 dilution). A suitable volume to give at least a 2-fold excess for the number of tests being conducted, typically 100-200 mL, is prepared by diluting the cell suspension to 10,000-40,000/mL, and 100 μL/well dispensed into 96 well plates using a programmable 8-channel peristaltic pump, giving 1000-4000 cells/well, leaving column 12 blank. The plates are returned to the incubator for 24 hours to allow the cells to re-attach.
The compounds being tested are prepared at 10 mM in DMSO. Aliquots (24 μL) are diluted into 1.2 mL culture medium giving 200 μM, and 10 serial dilutions of 3× performed by transferring 80 μL to 160 μL. Aliquots (100 μL) of each dilution are added to the wells, using an 8-channel pipettor, thus performing a final further 2× dilution, and giving doses ranging from 100 μM to 0.005 μM. Column 11 receives plain culture medium only. Each compound is tested in quadruplicate, each replicate being the average of four wells.
After a further 5 days growth, the plates are emptied, and the cells are fixed in 10% trichloroacteic acid for 30 minutes at 4° C. After thorough rinsing in running tap water, the plates are dried, and stained by adding 50 μL of a solution of 0.1% sulphorhodamine-B in 1% acetic acid, for 10 minutes at room temperature. The stain is poured out and the plates thoroughly rinsed under a stream of 1% acetic acid, thus removing unbound stain, and dried. The bound stain is taken into solution by addition of 100 μL Tris buffer pH 8, followed by 10 minutes on a plate-shaker (approximately 500 rpm). The absorbance at 540 nm in each well (being proportional to the number of cells present) is determined using a plate reader.
After averaging the blank values in column 12 this was subtracted from all values, and results expressed as a percentage of the untreated value (column 11). […] The GI50 generated by this procedure is the concentration of the drug that produces a percentage control A540 midway between the saturation, and zero-effect plateaus.

B-RAF = B-RAF (Homo sapiens, UniProt P15056); assay: Assay A - DELFIA kinase assay; type: biochemical; conditions: 100 μM ATP; mean of usually three assays; read-out: Assay A BRAF IC50
Sequence of B-RAF (P15056 whole entry): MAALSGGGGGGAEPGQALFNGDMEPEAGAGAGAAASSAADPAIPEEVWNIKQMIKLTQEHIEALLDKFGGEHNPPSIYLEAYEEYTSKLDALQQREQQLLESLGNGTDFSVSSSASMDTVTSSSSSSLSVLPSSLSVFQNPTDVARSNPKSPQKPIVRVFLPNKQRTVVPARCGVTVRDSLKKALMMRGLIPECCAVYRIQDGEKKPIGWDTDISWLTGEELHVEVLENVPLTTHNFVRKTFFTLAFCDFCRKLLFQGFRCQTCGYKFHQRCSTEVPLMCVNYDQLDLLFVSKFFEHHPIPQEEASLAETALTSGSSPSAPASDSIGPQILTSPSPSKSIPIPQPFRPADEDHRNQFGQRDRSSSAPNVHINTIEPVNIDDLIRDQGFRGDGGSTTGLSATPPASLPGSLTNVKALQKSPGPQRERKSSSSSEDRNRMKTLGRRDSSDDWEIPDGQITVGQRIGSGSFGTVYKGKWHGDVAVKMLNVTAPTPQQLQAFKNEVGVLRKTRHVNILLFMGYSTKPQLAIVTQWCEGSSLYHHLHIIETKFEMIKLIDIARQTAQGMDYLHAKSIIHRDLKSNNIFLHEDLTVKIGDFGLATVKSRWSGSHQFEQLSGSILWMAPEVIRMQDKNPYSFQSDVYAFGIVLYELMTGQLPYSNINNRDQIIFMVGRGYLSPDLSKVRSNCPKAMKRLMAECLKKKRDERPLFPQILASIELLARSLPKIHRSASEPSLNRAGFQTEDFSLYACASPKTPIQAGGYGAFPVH
Description: Biological Methods—Assay A—DELFIA Kinase Assay
Compounds were assessed by a kinase assay performed according to the following protocol.
The following reagents were prepared:
DELFIA Kinase Buffer (DKB):
DKB1 (DKB with B-RAF and MEK Protein):
Combine 4950 μL of DKB and 50 μL of 2.5 mg/mL GST-MEK stock (to give 1 mg of MEK per 40 μL). Then add 22.5 μL of B-RAF to give ˜0.2 μL of B-RAF per 40 μL.
DKB2 (DKB with MEK Protein):
Combine 4950 μL of DKB and 50 μL of 2.5 mg/mL GST-MEK stock (to give […] of MEK per 40 μL). Use 500 μL of this for the blow out (BO) and the empty vector (EV) control.
100 mM stock, dilute to 500 μM to give 100 μM final concentration in assay.
Inhibitors (Test Compounds):
Phospho-MEK1/2 CST #9121S diluted 1:1000 in DELFIA assay buffer (AB). Pre-incubate antibody in the AB for 30 minutes at room temperature prior to use.
Anti-rabbit-Eur labelled secondary Perkin Elmer #AD0105 diluted 1:1000 in DELFIA assay buffer (AB). Pre-incubate antibody in the AB for 30 minutes at room temperature prior to use. (Primary and secondary antibodies were incubated together.)
DELFIA assay buffer Perkin Elmer #4002-0010.
DELFIA enhancement solution Perkin Elmer #4001-0010.
96 well glutathione-coated black plate Perbio #15340.
1. Preblock wells with 5% milk in TBS for 1 hour.
2. Wash wells 3× with 200 μL TBS.
3. Plate out 40 μL of DKB1 for all inhibitors (test compounds), DMSO control, and optionally other control compounds.
4. Plate out 40 μL of DKB2 for BO and EV wells.
5. Add inhibitors (test compounds) at 0.5 μL per well according to desired plate layout.
6. Add 0.5 μL DMSO to vehicle control wells.
7. Add 2 μL of B-RAF to BO and EV wells.
8. Pre-incubate with inhibitors (test compounds) for 10 minutes at room temperature with shaking.
9. Add 10 μL of 500 μM ATP stock, in DKB, to give 100 μM assay concentration.
10. Seal plates with TopSeal and incubate at room temperature with shaking for 45 minutes.
11. Wash plates 3× with 200 μL 0.1% Tween20/Water to terminate reaction.
12. Add 50 μL per well of antibody mix and incubate for 1 hour at room temperature with shaking.
13. Wash plates 3× with 200 μL 0.1% Tween20/Water.
14. Add 100 μL DELFIA enhancement solution per well, cover in foil, and incubate at room temperature for 30 minutes with shaking.
15. Read on Victor using Europium protocol.
as §1, with “(Empty Vector)” for “(no cells)”, “response.” for “response).”, “B—Cell Based Phosho-ERK” for “C—SRB Cell Proliferation”, “Assay” for “Assay (SRB GI50)”

SMILES | GI50 [1] [nM] | IC50 (B-RAF) [nM]
Cn1c(=O)[nH]c2nccc(Oc3ccc(NC(=O)Nc4cc(C(C)(C)C)nn4-c4ccccc4)c(F)c3)c21 [AA-01, 1-(3-Tert-butyl-1-phenyl-1H-pyrazol-5-yl)-3-(2-fluoro-4-(1-N-methyl-2-oxo-2,3-dihydro-1H-imidazo[4,5-b]pyridin-7-yloxy)phenyl)urea] | 167 | 270
Cn1c(=O)[nH]c2nccc(Oc3ccc(NC(=O)Nc4cc(C(C)(C)C)nn4-c4ccccc4)c4ccccc34)c21 [BB-01, 1-(3-Tert-butyl-1-phenyl-1H-pyrazol-5-yl)-3-(4-(1-methyl-2-oxo-2,3-dihydro-1H-imidazo[4,5-b]pyridin-7-yloxy)naphthalen-1-yl)urea] | 1600 | 250
Cc1ccc(-n2nc(C(C)(C)C)cc2NC(=O)Nc2ccc(Oc3ccnc4[nH]c(=O)n(C)c34)c3ccccc23)cc1 [BB-02, 1-(1-N-p-tolyl-3-tert-butyl-pyrazol-5-yl)-3-(4-(2-oxo-2,3-dihydro-1-N-methyl-1H-imidazo[4,5-b]pyridin-7-yl-oxy)naphthalen-1-yl)urea] | 1680 | 2280
CC(C)(C)c1cc(NC(=O)Nc2ccc(Oc3ccnc4[nH]c(=O)[nH]c34)cc2)n(-c2ccccc2)n1 [XX-01, 1-(5-Tert-butyl-2-phenyl-2H-pyrazol-3-yl)-3-[4-(2-oxo-2,3-dihydro-1H-imidazo[4,5-b]pyridin-7-yloxy)-phenyl]-urea] | 840 | 94
Cc1ccc(-n2nc(C(C)(C)C)cc2NC(=O)Nc2ccc(Oc3ccnc4[nH]c(=O)n(C)c34)cc2)cc1 [XX-02, 1-(1-N-p-tolyl-3-tert-butyl-pyrazol-5-yl)-3-(4-(2-oxo-2,3-dihydro-1-N-methyl-1H-imidazo[4,5-b]pyridin-7-yl-oxy)phenyl)urea] | 450 | 200
Cn1c(=O)n(C)c2c(Oc3ccc(NC(=O)Nc4cc(C(C)(C)C)nn4-c4ccccc4)c(F)c3)ccnc21 [XX-03, 1-(3-Tert-butyl-1-phenyl-1H-pyrazol-5-yl)-3-(4-(1,3-dimethyl-2-oxo-2,3-dihydro-1H-imidazo[4,5-b]pyridin-7-yloxy)-2-fluorophenyl)urea] | 6830 | 1090
CC(C)(C)c1cc(NC(=O)Nc2ccc(Oc3ccnc4[nH]c(=O)[nH]c34)cc2)n(-c2ccc(F)cc2)n1 [XX-04, 1-[5-tert-Butyl-2-(4-fluoro-phenyl)-2H-pyrazol-3-yl]-3-[4-(2-oxo-2,3-dihydro-1H-imidazo[4,5-b]pyridin-7-yloxy)-phenyl]urea] | 2720 | 240
